Laboratory results published in US8859496B2, “Pharmaceutical composition using connective-tissue growth factor” (Postech Academy-Industry Foundation, priority 2010, dated 2014).

How the values were obtained:
human FPRL1 = assay: siRNA inhibition of FPRL1 expression in HUVECs (RT-PCR); assay type: cell-based; conditions: siRNA 20 nM
Protocol: To inhibit transcription of human FPRL1 using siRNA, siRA to FPRL1 (sense: UUCACAUCGUGGUGGACAUdTdT (SEQ ID NO. 3), anti-sense: AUGUCCACCACGAUGUGAAdTdT (SEQ ID NO. 4)) was used. As result of BLAST search of the siRNA sequence, it was confirmed that there is no significant similarity to other sequences in the database. […] HUVECs were used for siRNA transfection. The cells were transfected to the final concentration of 20 nM with FPRL1 siRNA (SEQ ID NO. 3 and SEQ ID NO. 4) or transfected with luciferase siRNA (SEQ ID NO. 11 and SEQ ID NO. 12) as control. At this time, a lipofectamine reagent (Invitrogen Life Technologies) was used according to the manufacturer's instruction. The cells were washed with serum-free medium, and cultured with the transfection mixture to which medium containing 20% (v/v) FBS was added for 4.5 hours. 24 hours and 48 hours after culturing, the cells were collected, and the degree of FPRL1 expression was confirmed by RT-PCR analysis.
All RNAs were separated from the transfected HUVECs according to the manufacturer's instruction using commercially available TRI reagent (Molecular Research Center). First-strand cDNA was synthesized according to the manufacturer's instruction using 3 ug of each DNA-free total RNA sample and oligo(dT)15 and Moloney murine leukemia virus reverse transcriptase (Promega, Wis., USA). […]

HUVECs [1] = assay: HUVEC tube formation on Matrigel; assay type: cell-based, human; conditions: compared to Luciferase siRNA control
Protocol: Meanwhile, to analyze tube formation, HUVECs were inoculated on the previously polymerized Matrigel (BD Biosciences) layer together with a certain amount of linker polypeptide, rhCTGF or VEGF-A165. After culturing for 18 hours, the shape of the cells was observed by phase-contrast microscopy, and photographed with 40× magnification. By measuring the length of tubes 5 times in LPF (low-power fields) randomly selected from each well using image-Pro Plus v4.5 (Media Cybernetics, Silver Spring, Md.), the degree of tube formation was quantified.
(§1) First, 20 ng/ml of VEGF-A was administered to HUVECs, the degree of cell proliferation, cell migration, or tube formation was confirmed by the <Experiment method 9>, and the results are shown in FIGS. 22 to 24. At this time, FPRL1 antagonist WRW4 was additionally added.

HUVECs [2] = assay: HUVEC wound migration assay; assay type: cell-based, human; conditions: compared to Luciferase siRNA control
Protocol: Specifically, HUVECs inoculated on a 60-mm culture dish to confluence were wounded with the end of a pipette, and treated with linker polypeptide (10^−1˜10^2 nM) or recombinant CTGF (recombinant human CTGF, rhCTGF; BioVendor R&D, NC, USA) (10^1 or 10^2 nM) in Medium 199 to which 1% serum and 1 mM thymidine were added. After culturing 16 hours, the number of cells that migrated over a reference line was counted to quantify the degree of migration, and the cells were photographed with 50× magnification.
as §1

FPRL1 = biological target: T1, FPRL1 (Homo sapiens, UniProt P25090); assay: ERK phosphorylation in FPRL1/RBL cells (immunoblot); assay type: cell-based; conditions: vector/RBL, FPR/RBL or FPRL1/RBL cells; conditioned medium or VEGF-A 10 ng/ml 8 hours; WKYMVm 10 nM
T1 construct: expressed in transfected cells; host or cells: rat basophil leukemia RBL-2H3 cells, kept under G418
T1 sequence (P25090 1-351): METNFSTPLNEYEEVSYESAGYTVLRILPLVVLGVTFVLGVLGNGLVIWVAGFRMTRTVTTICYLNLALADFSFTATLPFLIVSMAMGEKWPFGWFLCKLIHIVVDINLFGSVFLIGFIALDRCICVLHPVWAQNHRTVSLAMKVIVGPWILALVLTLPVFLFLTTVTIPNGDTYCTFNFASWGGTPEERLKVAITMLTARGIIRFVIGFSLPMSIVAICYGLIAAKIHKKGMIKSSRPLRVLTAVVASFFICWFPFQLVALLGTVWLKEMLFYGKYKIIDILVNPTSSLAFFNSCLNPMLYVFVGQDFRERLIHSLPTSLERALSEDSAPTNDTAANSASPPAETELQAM
Protocol: Vector/RBL cells, FPR/RBL cells, FPRL1/RBL cells, and HUVECs were cultured to confluence, and serum-starved. The stimulated cells (1×10^5 cells) were washed with PBS twice, dissolved in 1 ml of sample buffer (50 mM Tris-HCl, 100 mM NaCl, 0.1% SDS, 1% Nonidet P-40, 50 mM NaF, 1 mM Na3VO4, 1 μg/ml aprotinin, 1 μg/ml pepstatin, and 1 μg/ml leupeptin), heated at 95° C. for 30 seconds, separated with SDS-PAGE, and then, transferred to a nitrocellulose film. Immunoblot was conducted using anti-phospho-ERK (extracellular signal regulated kinase)1/2 (Thr^202/Tyr^204)(Cell Signaling Technology, Beverly, Mass., USA), anti-ERK1/2 (Cell Signaling Technology, Beverly, Mass., USA), anti-CTGF (Abcam, Cambridge, Mass., USA), anti-Actin (Sigma, St. Louis, Mo., USA), or anti-Flag (Sigma, St. Louis, Mo., USA) antibody, and then, the film was visualized with a chemiluminescence substrate (Amersham Pharmacia).
To confirm this, the inventors obtained conditioned medium (CM) in HUVEC treated with VEGF-A, and FPRL1-overexpressing cells FPRL1/RBL were treated therewith in the concentration of 10 ng/ml or 50 ng/ml for 8 hours. At this time, as positive control, FPRL1 agonistic peptide WKYMVm (Trp-Lys-Tyr-Met-Val-D-Met, SEQ ID NO. 1) was treated with 10 nM.
After the treatment, immunoblot was conducted on cell lysate that was transferred to a nitrocellulose film with anti-phospho ERK (extracellular signal regulated kinase)1/2 and anti-ERK1/2 antibody (Cell Signaling Technology, Beverly, Mass., USA), and then, the film was visualized with a chemiluminescence substrate (Amersham Pharmacia), and the results are shown in FIG. 1.
Meanwhile, the above described vector/RBL, FPR/RBL, or FPRL1/RBL cells were respectively treated with the above conditioned medium or VEGF-A at the concentration of 10 ng/ml for 8 hours, and positive control was treated with 10 nM of agonistic peptide WKYMVm (SEQ ID NO. 1).
As described in the <Experiment method 5>, FPRL1/RBL cells were treated with 40 ug of the HPLC fraction of the conditioned medium for 5 minutes, and the result confirming whether ERK phosphorylation occurred as described in the <Experiment result 1> was shown in FIG. 3.
To confirm whether the purified proteins induce ERK phosphorylation in FPRL1/RBL cells, immunoblot was conducted as described in the <Experiment result 1>, and the results are shown in FIG. 9.
ERK phosphorylation induction of CTGF linker polypeptide was compared to recombinant human CTGF (rhCTGF). Specifically, FPRL1/RBL cells were treated with CTGF linker polypeptide and rhCTGF for 5 minutes at various concentrations, ERK phosphorylation was measured, and the results are shown in FIG. 11. […]

Substance: FPRL1 siRNA: sense: UUCACAUCGUGGUGGACAUdTdT (SEQ ID NO. 3), anti-sense: AUGUCCACCACGAUGUGAAdTdT (SEQ ID NO. 4) (dTdT overhangs, chemistry not fully specified)
- FPRL1 expression after siRNA (human FPRL1): FPRL1 expression is inhibited
- effect of siRNA on HUVEC tube formation induced by VEGF-A (HUVECs [1]): cell migration or tube formation induced by VEGF-A is inhibited
- effect of siRNA on HUVEC cell migration induced by VEGF-A (HUVECs [2]): cell migration or tube formation induced by VEGF-A is inhibited

Substance: Luciferase siRNA: control siRNA, sense: CGUACGCGGAAUACUUCGAdTdT (SEQ ID NO. 11), anti-sense: UCGAAGUAUUCCGCGUACGdTdT (SEQ ID NO. 12) (dTdT overhangs, chemistry not fully specified)
- FPRL1 expression after siRNA (human FPRL1): FPRL1 expression is not inhibited

Substance: Trp-Lys-Tyr-Met-Val-D-Met [WKYMVm]
- ERK phosphorylation, specificity for FPRL1 (FPRL1): induce ERK phosphorylation only in FPRL1-overexpressing FPRL1/RBL cells
